{
  "source": "paper PMC9065877",
  "about": "“Safety, tolerability and pharmacokinetics of the oligomer modulator anle138b with exposure levels sufficient for therapeutic efficacy in a murine Parkinson model: A randomised, double-blind, placebo-controlled phase 1a trial” (EBioMedicine, 2022)",
  "key": {"[1]": {"test": "Oral pharmacokinetics, overall statements across SAD, MAD and FES parts", "type": "in vivo, human", "procedure": "As a safety precaution, sentinel dosing was performed for all SAD and MAD cohorts. In SAD, subjects received a single dose of anle138b or placebo after fasting from all food and drink (except water) for a minimum of 8 h prior to dosing. The dosing in the four SAD-cohorts were 50 mg, 100 mg, 200 mg and 300 mg of free anle138b equivalent, respectively. In the MAD part, participants received anle138b or placebo once daily (QD) for 7 days after fasting from all food and drink (except water) for a minimum of 8 h prior to dosing. The dosing in the three MAD-cohorts was 100 mg, 200 mg and 300 mg of free anle138b equivalent, respectively. Post dosing mouth and hand checks were conducted to ensure the capsules were swallowed. In-study decisions regarding continuation and dose escalation were made by the safety advisory committee (SAC) comprising the principal investigator, the sponsor's medical monitor and a PK expert. For dose escalation to proceed, data needed to be available from a minimum of 6 subjects per cohort with completed per protocol safety and PK assessments up to 48 h after dosing to ensure at least 4 subjects had received active IMP. The decision to proceed to the next higher dose level was based on safety, tolerability and available PK data to 48 h post-dose. The following data were required: Adverse events, vital signs, safety laboratory, ECG, physical examinations, plasma concentrations of anle138b with interim PK parameter estimations (Tmax, Cmax, AUC(0-24), AUC(0-tau), AUC(0-last) and T½, where applicable). Data were provided to the SAC in accordance with Quotient Sciences’ standard operating procedure (SOP) on interim dose decision-making and dose escalation. […]\nSecondary outcome measures were the oral PK of single (SAD) and multiple (MAD) ascending doses of anle138b in the fasted state as well as the effect of co-administration with food on the PK of anle138b. […] Time point of last quantifiable data was seen to increase with an increase in dose as follows: SAD: from the 50mg dose (subjects ranged between 8-24h) to the 300mg dose (subjects ranged between 36-48h). […]"}, "[2]": {"test": "Food effect study (FES), 150 mg single dose fed vs fasted, pharmacokinetics in healthy subjects, plasma", "type": "in vivo, human", "settings": "for Cmax / AUC(0-t): po, 150 mg, FES 150 mg single oral dose, geometric mean (CV%); for AUC(0-t): read-out: AUC(0-24)", "procedure": "This was a single-centre, double-blind, randomised, placebo-controlled single ascending dose (SAD) and multiple ascending dose (MAD) study of anle138b in doses of up to 300 mg per day in healthy subjects. In addition, the effect of food (FES) on the PK of anle138b in healthy subjects was examined using single doses of 150 mg. Participants were recruited from Quotient Sciences (Nottingham, UK) volunteer database.\nThis dose was administered either i) after a standard FDA-approved high-fat breakfast or ii) in the fasted state i.e., fasted from all food and drink (except water) for a minimum of 8 h prior to dosing. In total, one cohort of 12 subjects was randomised in a 1:1 ratio to 2 treatment sequences (fed→fasted) or (fasted→fed). A minimum washout of at least 5 half-lives of anle138b between each dose was assured.\nSecondary outcome measures were the oral PK of single (SAD) and multiple (MAD) ascending doses of anle138b in the fasted state as well as the effect of co-administration with food on the PK of anle138b. To this end PK blood samples were taken at day 1 (and for MAD day 7) pre-dose and at 0·5, 1, 1·5, 2, 3, 4, 6, 8, 10, 12, 16 and 20 h post-dose, at days 2 to 6 pre-dose only (MAD) and 24, 30, 36 and 48 h post final dose. Analysis of anle138b in plasma was done at Aptuit, an Evotec company, in Verona, Italy. Time point of last quantifiable data was seen to increase with an increase in dose as follows: SAD: from the 50mg dose (subjects ranged between 8-24h) to the 300mg dose (subjects ranged between 36-48h). MAD: from the 100mg dose (subjects ranged between 8-36h) to the 300mg dose (subjects ranged between 20-48h). In FES, subjects ranged between 24-48h.\nThe study was exploratory and no formal sample size calculation was made. Based on experience from previous studies of similar design, eight subjects per cohort were enrolled for parts 1 (SAD) and 2 (MAD) and a total of twelve subjects for part 3 (FES). Populations and analysis sets were determined for safety and PK data after database lock using the criteria defined in the reporting and analysis plan. The safety population and safety analysis set for SAD and MAD were defined after database lock but prior to study unblinding. Statistical analysis and production of summary tables, figures and listings for all safety data (AEs, vital signs, ECGs and safety laboratory assessments) including changes from baseline as required in this study were performed using the statistical package SAS (v9·4). Additional statistics was provided for PK-related data including coefficient of variation (CV%), geometric mean, geometric CV%, and the number n of subjects that were included in the natural logarithmic transformation). In SAD and MAD, dose proportionality was assessed. Formal statistical analysis was performed on the log-transformed PK parameters AUC(0-last), AUC(0-inf), and Cmax for SAD (day 1), and AUC(0-tau) and Cmax for MAD (day 1 and day 7) to assess dose proportionality using the following power model: loge (AUC or Cmax) = µ + βx loge (dose). The estimate obtained for β is a measure of dose proportionality. The estimate of β together with its 90% confidence interval (CI) (βl, βu) was used to quantify the degree of non-proportionality. In MAD, formal statistical analysis was performed on the PK parameters AUC(0-tau) and Cmax to assess dose accumulation. Log-transformed AUC(0-tau) and Cmax was subjected to a mixed-effects model with treatment (dose level), day (day 1 or 7) and treatment-by-day interaction as fixed effects and subject as a random effect. The adjusted means obtained from the model, including differences for each comparison of interest and the associated 90% CIs, was back-transformed on the log scale to obtain adjusted geometric means, adjusted geometric mean ratios (GMRs) and 90% CIs of the ratio. The GMRs and 90% CIs were provided for each treatment and overall, i.e., day 7/day 1. […]"}, "[3]": {"settings": "human, plasma, fed (high-fat breakfast)"}},
  "note": "Where two headings read alike, the source gives them in different places.",
  "data": [
    {"smiles": "Brc1cccc(-c2cc(-c3ccc4c(c3)OCO4)n[nH]2)c1", "note": "[anle138b, 3-(1,3-benzodioxol-5-yl)-5-(3-bromophenyl)-1H-pyrazole]", "values": [
      {"measurement": "half-life", "setting": "[1]; human, plasma, oral, authors' conclusion from SAD data, read-out: true T½ of anle138b in human plasma", "result": "≥ 10", "unit": "h"},
      {"measurement": "practical elimination half-time", "setting": "[1]; overall PK data", "result": "~12", "unit": "h"},
      {"measurement": "Bioavailability (in words)", "setting": "[1]; overall PK data, fasted and fed conditions", "result": "good bioavailability"},
      {"measurement": "Time point of last quantifiable data (range of subjects)", "setting": "[2]; FES 150 mg", "result": "24 to 48", "unit": "h"},
      {"measurement": "Effect of food on Cmax", "setting": "[2]; FES 150 mg, fed vs fasted", "result": "decreased by about half"},
      {"measurement": "Food effect on AUC", "setting": "[2]; FES 150 mg, fed vs fasted", "result": "clinically insignificant"},
      {"measurement": "bioavailability", "setting": "[2]; human, plasma, oral, FES 150 mg, 90% CI: 61%, 88%, read-out: Dose bioavailable in the fed state compared to the fasted state", "result": "~74", "unit": "%"},
      {"measurement": "Cmax", "setting": "[2]; human, plasma, fasted", "result": 442, "unit": "ng/mL"},
      {"measurement": "AUC(0-t)", "setting": "[2]; human, plasma, fasted", "result": 896, "unit": "ng·h/mL"},
      {"measurement": "Cmax", "setting": "[2]; [3]", "result": 196, "unit": "ng/mL"},
      {"measurement": "AUC(0-t)", "setting": "[2]; [3]", "result": 641, "unit": "ng·h/mL"}
    ]}
  ]
}
